Consider 1 compound from patent US11154559B2, “Methods and compositions of bile acids” (The General Hospital Corporation, priority 2011, dated 2021).

The assay in a line: Effect of subcutaneous TUDCA on weight gain and food intake in mice on a high-fat diet. It counts as in vivo, C57BL/6J mice. To be noted: 500 mg/kg s.c. twice a week vs placebo. Here is the method:
To examine the effect of circulating bile acids on body weight gain, C57BL/6J mice on a high-fat diet (HFD) were given subcutaneous injections of tauroursodeoxycholic acid (TUDCA, 500 mg/kg) or placebo for 10 weeks (N=6 per group). TUDCA was prepared daily in 0.15 M NaHCO3 (pH adjusted to 7.4). TUDCA or placebo (0.15 M NaHCO3, pH 7.4) was administered twice a week (Monday/Thursday) as 10 μl solution/g of body weight. Body weight (BW) was measured and recorded immediately before each injection and used to calculate the TUDCA or placebo dose to be administered.
Animals were 10 weeks of age at the start of the experiment (BW=32.6 g±2.6) and were on a […] from weaning that provided 60% of total energy as fat, 20% as carbohydrate, and 20% as protein (D12492 diet; Research Diets, New Brunswick, N.J.). Animals were individually housed on wire floors without bedding and maintained on a 12-hour light-dark cycle (lights on at 0700 hours) in a facility with an ambient temperature of 19-22° C.
Body weight was recorded twice a week, food intake was obtained weekly, and fasting blood glucose was measured every other week.

`C[C@H](CCC(=O)NCCS(=O)(=O)O)[C@H]1CC[C@H]2[C@@H]3[C@@H](O)C[C@@H]4C[C@H](O)CC[C@]4(C)[C@H]3CC[C@]12C` [TUDCA, tauroursodeoxycholic acid]: the “percent weight change from baseline” value (high-fat diet, FIG. 35) was “trend toward decreased weight”. The weight gain result (high-fat diet, not statistically significant, FIG. 34) was “trend towards decreased weight gain”. In addition, the weekly food intake entry (FIG. 36) was “similar”. Moreover, under “FIG. 37”, the cumulative food intake entry is listed as “similar”.
